The target of assay [1] is T1, hRANK (Homo sapiens, UniProt Q9Y6Q6).
T1 construct: For NMR experiments with soluble RANK receptor-Fc (R&D Systems); purchased R&D Systems
T1 sequence (Q9Y6Q6 30-212 limits assumed): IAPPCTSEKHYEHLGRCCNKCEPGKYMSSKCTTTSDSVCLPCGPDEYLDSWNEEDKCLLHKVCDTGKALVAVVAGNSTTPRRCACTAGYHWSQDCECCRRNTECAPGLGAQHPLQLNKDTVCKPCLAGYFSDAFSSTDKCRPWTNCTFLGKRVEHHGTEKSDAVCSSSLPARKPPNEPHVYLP
Description: Surface plasmon resonance (Biacore) binding to immobilized RANK-Fc. The conditions noted are these: SPR, 1:1 Langmuir model. The method, then:
Biosensor experiments were carried out on a BIAcore 3000 instrument (BIAcore) as published previously (Baud′Huin et al. 2009). Recombinant purified RANKL (2 μg/mL in 5 mM maleate, pH 5.75) or RANK-Fc carrier-free (5 μg/mL in sodium acetate buffer, pH 5.0) were covalently immobilized to the dextran matrix of a CM5 sensor chip (BIAcore) at a flow rate of 5 μL/min. Immobilization levels ranging from 400 to 3000 Response Units (RU) for RANKL or 5000 RU for RANK were obtained. Binding assays were performed at 25° C. in 10 mM Hepes buffer, pH 7.4. The association phase was 180 seconds followed by a dissociation phase in the same buffer. Polypeptides binding studies to RANK or RANKL were determined using single cycle kinetics, starting with 100 μM of the polypeptide of interest followed by 2-fold serial dilutions (ranging from 100 to 0.78 μM). The sensorgrams were fitted to calculate the equilibrium-dissociation constants using the Langmuir 1:1 model with BiaEval 4.1 software (BIAcore). RANK-Fc CF, RANKL and OPG carrier-free were obtained from R&D Systems (Minneapolis, Minn., USA).
(In general: SPR reads the build-up and loss of mass on a sensor chip optically.)

Assay [2] concerns ovariectomized C57BL/6 mice. Description: Ovariectomy-induced bone loss in mice, micro-CT of tibiae and L4 vertebrae. Format: in vivo, mouse. The conditions noted are these: 35 days. From the text: Eight-week-old ovariectomized (OVX) female C57BL6 and non-ovariectomized control mice were purchased from Janvier (Le Genest Saint Ilsle, France). Mice were housed under pathogen-free conditions at the Experimental Therapy Unit (Faculty of Medicine, University of Nantes, France), and animal care and experimental protocols were approved by the French Ministry of Research and were done in accordance with the institutional guidelines of the French Ethical Committee and under the supervision of authorized investigators. After recovery from OVX surgery for 7 days and acclimation, the mice were randomly divided into treatment groups receiving daily subcutaneous injections of a peptide and a control group receiving daily injections of the vehicle (PBS) only. Non-ovariectomized or sham-operated mice were included in the studies as healthy controls. Three experimental protocols were established. Protocol 1: Ovariectomized mice received daily s.c. injections of 10 mg/kg body weight Pep8 (Pep8, n=8) or vehicle only (OVX, n=8). Non-ovariectomized (NOV, n=8) mice served as normal controls. Protocol 2: Ovariectomized mice were randomly divided into four groups (n=8), receiving daily treatments with pegylated Pep8 (Pep8-NPEG5) at 10 mg/kg or 2.5 mg/kg, or unpegylated Pep8 at a dose of 10 mg/kg/d, or the vehicle only. Sham-operated mice (n=5) served as healthy controls. Protocol 3: Ovariectomized mice receiving daily treatments with pegylated Pep8 (Pep8-NPEG8) at 10 mg/kg or 2.5 mg/kg, as described before, or unpegylated Pep8 at a lower dose of 2.5 mg/kg/d, or the vehicle only. Sham-operated mice (n=8) served as healthy controls.
During the experimental period, the body weight of the mice was monitored. […] After treatment for five weeks, mice were anesthetized with isoflurane (2%, 1 L/min) and sacrificed by cervical dislocation. Lumbar vertebrae and tibiae were collected for micro-CT analysis and stored at 4° C. in 4% paraformaldehyde until further analysis. Additionally, internal organs (heart, liver, lungs, kidneys, spleen, intestines and thymus) of some mice (n=3 per group) were harvested and stored for toxicity screening.
Analysis of architectural variables of tibiae and vertebrae of mice was performed using the high-resolution X-ray micro-CT system for small animal imaging SkyScan-1072 (SkyScan, Belgium). After scanning, the image data were transferred to a workstation and the proximal tibiae and the fourth lumbar vertebrae (L4) were rendered for 3-D display and calculation of the structural indices (Parfitt et al. 1987) using the SkyScan analysis system (CT-analyser, CT-volume, SkyScan). For trabecular bone parameters in tibiae, transverse CT slices were obtained in the region of interest in the axial direction from the trabecular bone ca. 0.1 mm below the growth plate to the mid-femur. Contours were defined and drawn close to the cortical bone. The trabecular bone was then removed and analyzed separately. Fifty slices (1 mm) at approximately […] distal to the growth plate of the proximal ends of the tibiae were used for analysis. […] The threshold level for the measurements was set at 55 for the analyses. The analysis of the specimens involved the following bone measurements: bone volume fraction (BV/TV, %), trabecular number (TbN), trabecular thickness (TbTh) and trabecular spacing (TbSp).

Ends that are not written are not given here. (PEG)5 = linear (PEG)5 polyethylene glycol chain at N-terminal amino acid

For ELASYIIITQLG [Pep1, ELASYIIITQLG], in assay [1] (25° C., pH 7.4, read-out: binding affinity (Kd) to hRANK), the Kd was 20.6 µM. In addition, the kon in assay [1] (read-out: association rate constant (kon)) amounted to 13.5 M⁻¹ s⁻¹. For the same substance, in assay [1] (read-out: dissociation rate constant (koff)), the koff stood at 0.000278 s⁻¹.
With “Pep8-NPEG5: Pep8 carrying a linear (PEG)5 polyethylene glycol chain at the N-terminal amino acid ({(PEG)5}-NVLKLCSGE)”, the “protection against OVX-induced trabecular bone loss (μCT, tibiae)” value in assay [2] (2.5 mg/kg/d s.c.) is recorded as “almost as effective”. Moreover, the “trabecular BV/TV and TbN, tibiae” value in assay [2] (2.5 mg/kg/d, vs vehicle) is “significantly increasing”. Besides, the “protection against OVX-induced trabecular bone loss (μCT)” value in assay [2] (10 mg/kg/d s.c.) is on record as “attenuated bone loss in OVX mice to the same extent as treatment with the unpegylated peptide”.

As usually defined, the Kd is the constant that tells how readily two partners part at equilibrium. The term kon denotes the second-order rate constant of association. The term koff denotes the rate constant with which the complex falls apart.

Values taken from patent publication US9403873B2, “Peptides targeting receptor activator of nuclear factor-κB (RANK) and their applications” (UNIVERSITE DE NANTES, priority 2011, dated 2016).
